We go through 2 compounds from patent US8680109B2, “Combination product comprising SRC kinase inhibitor AZDO530 and an antioestrogen or EGFR-TK-inhibitor” (AstraZeneca AB, priority 2004, dated 2014).

Experiment [1] concerns 'Tam-R' cells. The experiment in a line: Test (d) fibronectin cell migration assay. Format: cell-based. As to conditions: Homo sapiens, 20 h; read-out: IC50 versus 'Tam-R' cells, Test (d) fibronectin cell migration. The method, then: (§1) ‘Tam-R’ MCF7 breast cancer cells were maintained in phenol red-free RPMI medium supplemented with 5% charcoal-stripped, steroid-depleted foetal calf serum, antibiotics as above, glutamine (200 mM) and 4-hydroxytamoxifen (10^−7M in ethanol).
(d) Fibronectin Cell Migration Assay
The polycarbonate filter membranes of Transwell chambers (6.5 mm diameter, 8.0 μm pore size from Costar Inc., Cambridge, Mass., USA) were coated on the underside of the membrane with 50 μg/ml fibronectin in serum-free RPMI for 2 hours at 37° C. The polycarbonate membranes were rinsed once with PBS. Cells were harvested and resuspended at a concentration of 5×10^5 cells per ml in serum-free RPMI. Aliquots of cells (100 μl; 5×10^4 cells) were seeded into each well to which 500 μl of experimental medium had been added. In control experiments, cells were allowed to migrate toward the underside of the membrane for 20 hours. In test experiments, appropriate concentrations of inhibitor compounds (or combinations of inhibitor compounds) were added and cells were allowed to migrate toward the underside of the membrane for 20 hours. […] The number of migrating cells was counted at 20-fold magnification using an inverted microscope.

Experiment [2] relates to MCF7 human breast cancer cells. The experiment is described as follows: Test (f) cell attachment assay. In kind it is cell-based. The method, then:
(f) Cell Attachment Assay
The wells of a 96-well plate were coated with Matrigel (50 μg/well) and air-dried overnight in a sterile tissue culture hood. Cells growing in log phase were harvested and adjusted to a concentration of 2×10^5 cells per ml in culture medium containing appropriate concentrations of inhibitor compounds (or combinations of inhibitor compounds). Aliquots of cells (2×10^4 cells) were seeded into each well and the plate was incubated at 37° C. for 30 minutes. The wells were washed twice with PBS to remove unbound cells prior to the addition to each well of 150 μl of MTT solution (0.5 mg/ml in serum-free medium). Plates were incubated for a further 4 hours at 37° C. to allow the development of […] crystals within the cells. The MTT solution was removed from the wells and the dye was extracted at 4° C. overnight with 10% TX-100 solution. The absorbance was measured with a Titerteck Multiskan ELISA plate reader (Flow Laboratories, UK) equipped with a 540 nm filter. Cell attachment in response to the treatments was calculated as a percentage of the cells adhered in the control (untreated) wells.

In experiment [3] the test system is MCF7 human breast cancer cells ('wild type', 'Tam-R', 'Tam/TKI-R'). The experiment in a line: Test (a) cell growth studies. In kind it is cell-based. As to conditions: MCF7, 168 h. The source says:
Various test methods have been described by Knowlden et al., Endocrinology, 2003, 144, 1032-1044 and include one or more of:— • (i) tamoxifen-responsive ‘wild type’ MCF7 human breast cancer cells; • (ii) an endocrine-insensitive variant of such MCF7 breast cancer cells that was designated ‘Tam-R’ (tamoxifen-resistant); and • (iii) a variant of such ‘TAM-R’ cells that was also insensitive to treatment with the EGFR TKI ZD1839 that was designated ‘Tam/TKI-R’.
Tamoxifen-responsive ‘wild type’ MCF7 breast cancer cells were routinely cultured in phenol red-free RPMI medium supplemented with 5% foetal calf serum plus penicillin (10 IU/ml), streptomycin (10 μg/ml) and fungizone (2.5 μg/ml). Cultures were maintained at 37° C. in a humidified atmosphere with 5% CO2. […]
Cell monolayers were grown for 7 days in serum growth factor free DCCM medium in the presence of increasing concentrations of the individual components of the above-mentioned combinations or with the combinations themselves. Cell population growth was evaluated by means of trypsin dispersion of the cell monolayers and cell number was measured using a Beckman Coulter counter (available from Beckman Coulter Limited, Luton, GB). […]

The subject of experiment [4] is 'Tam-R' cells. The experiment is described as follows: Test (e) cell invasion assay. Format: cell-based. As to conditions: Homo sapiens, 72 h; read-out: IC50 versus 'Tam-R' cells, Test (e) cell invasion. The method, then: as §1
A modification of the method previously described by Hiscox et al. (Breast Cancer Research Treatment, 2000, 59, 245-254) was used to study the invasive nature of the breast cancer cells.
Transwell polycarbonate filter membrane inserts (6.5 mm diameter, 8 μm pore size from Costar Inc.) were placed in 24-well tissue-culture plates and were coated with Matrigel (0.4 μg/ml) at ambient temperature overnight in a sterile tissue culture hood. After rehydrating the wells with serum-free RPMI for 1 hour at 37° C., cells were seeded onto the membrane inserts at 5×10^4 cells/well with or without appropriate concentrations of inhibitor compounds (or combinations of inhibitor compounds) and 600 μl of culture medium was added such that the membrane inserts were immersed. The wells were cultured at 37° C. for 72 hours, after which the non-invasive cells and Matrigel were removed from the inside of the wells with a cotton swab. […] Cell invasion was quantified with a fluorescent microscope by viewing 5 separate fields per membrane at 2-fold magnification and counting the number of cells in each field. […]

Experiment [5] deals with MCF7 human breast cancer cells. The experiment is described as follows: Test (b) time lapse analysis of cell motility. In kind it is cell-based. Here is the method:
(b) Time Lapse Analysis of Cell Motility
Cells were cultured in 6-well tissue-culture plates and allowed to reach log phase growth. Plates were transferred to the heated stage of an inverted microscope and cell cultures were overlaid with mineral oil to minimise pH changes in the medium during the cell motility analysis. Cell motility was recorded over a period of 6 hours using a video camera coupled to a time lapse video recording system. For quantitation of cell motility, images were captured at 10 minute intervals during video playback and the movement of at least 10 individual cells was tracked using Optimas image analysis software (Media Cybernetics UK, Finchampstead, Berkshire, GB). Cell movement was plotted as either cell position (x-position vs. y-position) or total distance migrated (μm) as a function of time. To determine the directional persistence of cell motility, paths of cells were plotted such that all paths start from the origin.

Experiment [6] concerns human and/or mouse carcinomas grown as tumours in athymic nude mice. The experiment in a line: Test (i) in vivo xenograft growth assays. As to conditions: AZD0530 used alone; oral once daily. From the text:
(i) In Vivo Xenograft Growth Assays
This test measures the ability of combination product of the invention to inhibit the growth of human and/or mouse carcinomas grown as tumours in athymic nude mice. Suitable cancer cells for injection include human MCF7 breast cancer cells (obtainable from American Type Culture Collection, 10801 University Boulevard, Manassas, Va. 20110-2209; Cat. No. HTB-22), c-Src transfected mouse 3T3 fibroblast cancer cells (transfection with an activating mutant (Y530F) of human c-Src via a similar procedure to that described by Shalloway et al., Cell, 1987, 49, 65-73), human LoVo colorectal cancer cells (obtainable from European Collection of Cell Cultures, ECACC, CAMR, Salisbury, Wiltshire, SP4 0JG, UK; Cat. No. CCL 229), human CaLu-6 lung cancer cells (ATCC Cat. No. HTB-56) and human A549 NSCLC cancer cells (ATCC Cat. No. CCL185).
A total of about 1×10^6 human cancer cells in 0.1 ml of a 1:1 mixture of matrigel (Beckton Dickinson Catalogue No. 40234) and Eagle's Minimum Essential Medium (EMEM; Gibco Catalogue No 21090-022) were injected subcutaneously into a flank of each test mouse and the resultant tumours were allowed to grow for about 10 days. […] Tumour size was measured twice weekly using callipers and a theoretical volume was calculated. The effect on tumour growth was assessed.

For experiment [7], the system named is human tumour cell line A549. The experiment in a line: Test (h) in vitro microdroplet migration assay. In kind it is cell-based. As to conditions: read-out: activity, Test (h) (migratory inhibitory IC50). The method, then:
(h) In Vitro Microdroplet Migration Assay
This assay determines the ability of a test compound (or combination of test compounds) to inhibit the migration of adherent mammalian cell lines, for example the human tumour cell line A549.
RPMI medium (Sigma) containing 10% FCS, 1% L-glutamine and 0.3% agarose (Difco Catalogue No. 0142-01) was warmed to 37° C. in a water bath. A stock 2% aqueous agar solution was autoclaved and stored at 42° C. An aliquot (1.5 ml) of the agar solution was added to RPMI medium (10 ml) immediately prior to its use. A549 cells (Accession No. ATCC CCL185) were suspended at a concentration of 2×10^7 cells/ml in the medium and maintained at a temperature of 37° C.
A droplet (2 μl) of the cell/agarose mixture was transferred by pipette into the centre of each well of a number of 96-well, flat bottomed non-tissue-culture-treated microtitre plate (Bibby Sterilin Catalogue No. 642000). The plates were placed briefly on ice to speed the gelling of the agarose-containing droplets. Aliquots (90 μl) of medium which had been cooled to 4° C. were transferred into each well, taking care not to disturb the microdroplets. Test compounds were diluted from a 10 mM stock solution in DMSO using RPMI medium as described above. […]
Migration was assessed visually and the distance of migration was measured back to the edge of the agar droplet. […]

Experiment [8] has as its system tamoxifen resistant MCF7 breast cancer cells. The conditions noted are these: cited from earlier work.

The structures appear in SMILES notation.

Regarding `CN1CCN(CCOc2cc(OC3CCOCC3)c3c(Nc4c(Cl)ccc5c4OCO5)ncnc3c2)CC1` [AZD0530, 4-(6-chloro-2,3-methylenedioxyanilino)-7-[2-(4-methylpiperazin-1-yl)ethoxy]-5-tetrahydropyran-4-yloxyquinazoline], the IC50 with 'Tam-R' cells [1] was around 100 nM; in experiment [2] it was 100 to 1000 nM; in experiment [3], 100 to 5000 nM; in the experiment with 'Tam-R' cells [4], around 100 nM; in experiment [5] it was 100 to 1000 nM; in experiment [7], 100 to 5000 nM. The “activity (active dose), Test (i) xenograft growth” value in experiment [6] lay in the range of 1 to 200 mg/kg/day.

As to `COc1cc2ncnc(Nc3ccc(F)c(Cl)c3)c2cc1OCCCN1CCOCC1` [ZD1839, N-(3-chloro-4-fluorophenyl)-7-methoxy-6-(3-morpholinopropoxy)quinazolin-4-amine], the “basal and TGFα stimulated growth” value in experiment [8] was “could be inhibited”.
